{"source": "patent US5279811A", "about": "“Ester-substituted diaminedithiols and radiolabeled complexes thereof” (The Du Pont Merck Pharmaceutical Company, priority 1988, dated 1994)", "test": "solubility", "assay_type": "physicochemical", "conditions": "all solvents except aqueous base", "data": [{"molecule": "O=C(O)C(CS)NCCNC(CS)C(=O)O", "note": "[N,N'-1,2-ethylenediylbis-L-cysteine]", "values": [{"measurement": "solubility", "value": "insoluble in all solvents except aqueous base"}]}]}
